We go through 21 compounds from patent publication US10590128B2, “6,7,8,9-tetrahydro-5H-pyrido[2,3-d]azepine dopamine D3 ligands” (Pfizer Inc., priority 2016, dated 2020).

Structures are written as SMILES.

Assay [1] addresses human dopamine D2 receptor (hD2R) (Homo sapiens, UniProt P14416). Description: Human D2 receptor binding assay ([^3H]-Spiperone). The note with it: CHO cells expressing hD2R, geometric mean of 2-5 determinations unless marked b (single determination). On the procedure: (§1) Human D2 Receptor and Human D3 Receptor Binding Assays:
(§2) These determined ligand and tissue concentrations were utilized in time course studies to determine linearity and equilibrium conditions for binding. […] The hD2R assay buffer contains 50 mM Tris (pH 7.4 @ 37° C.), 100 mM NaCl and 1 mM MgCl2. The hD3R assay buffer consists of 50 mM Tris (pH 7.4 at 37° C.), 120 mM NaCl, 5 mM MgCl2, 5 mM KCl and 2 mM CaCl2. Competitive binding experiments were initiated by the addition of 200 μL of the respective cell homogenate to 96-well plates containing […] test drugs (10 concentrations using ½ log dilutions) and 50 μL of ^3H-radioligand for a final volume of 250 μL. Non-specific binding was determined by radioligand binding in the presence of a saturating concentration of Haldol (10 μM). After the 20 minute incubation at 37° C., assay samples were rapidly filtered through Unifilter-96 GF/B PEI-coated filter plates and rinsed with ice-cold 50 mM Tris buffer (pH 7.4 at 4° C.). […] The IC50 value (concentration at which 50% inhibition of specific binding occurs) was calculated by linear regression of the concentration-response data in ActivityBase. Ki values were then calculated according to the Cheng-Prusoff equation:
(§3) [formula] where [L]=concentration of free radioligand and Kd=dissociation constant of radioligand for D3 receptor or D2 receptor.

The target in assay [2] is human dopamine D3 receptor (hD3R) (Homo sapiens, UniProt P35462). The assay can be described thus: Human D3 receptor binding assay ([^3H]-7-OH-DPAT). The following applies: CHO cells expressing hD3R, geometric mean of 2-5 determinations unless marked b (single determination), read-out: hD3 in CHO cells Ki. On the procedure:
as §1, §2, §3

Chain of human dopamine D3 receptor (hD3R) (P35462 whole entry): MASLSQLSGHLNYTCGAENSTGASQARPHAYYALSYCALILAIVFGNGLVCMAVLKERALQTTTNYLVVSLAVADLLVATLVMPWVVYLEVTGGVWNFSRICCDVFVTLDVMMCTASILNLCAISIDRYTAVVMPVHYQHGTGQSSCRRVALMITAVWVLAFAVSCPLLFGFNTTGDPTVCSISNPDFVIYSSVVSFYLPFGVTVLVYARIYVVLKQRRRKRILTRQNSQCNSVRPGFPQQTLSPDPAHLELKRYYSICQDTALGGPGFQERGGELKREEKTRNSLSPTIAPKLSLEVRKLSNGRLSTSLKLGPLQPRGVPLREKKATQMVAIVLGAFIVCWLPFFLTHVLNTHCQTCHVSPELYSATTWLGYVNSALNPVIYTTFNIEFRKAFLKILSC
Chain of human dopamine D2 receptor (hD2R) (P14416 whole entry): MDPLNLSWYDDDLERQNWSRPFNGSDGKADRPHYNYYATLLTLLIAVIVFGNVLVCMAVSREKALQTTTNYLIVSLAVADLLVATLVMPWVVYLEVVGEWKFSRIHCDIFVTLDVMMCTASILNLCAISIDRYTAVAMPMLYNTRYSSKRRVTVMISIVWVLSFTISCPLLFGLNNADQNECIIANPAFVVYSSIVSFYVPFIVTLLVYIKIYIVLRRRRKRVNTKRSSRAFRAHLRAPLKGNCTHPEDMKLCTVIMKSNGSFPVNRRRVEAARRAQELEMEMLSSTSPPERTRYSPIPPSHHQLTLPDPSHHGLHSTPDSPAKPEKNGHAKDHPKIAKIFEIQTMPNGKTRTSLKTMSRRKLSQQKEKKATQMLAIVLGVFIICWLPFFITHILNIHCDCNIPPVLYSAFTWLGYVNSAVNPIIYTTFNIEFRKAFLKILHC

Consider `CCOc1ccc(S(=O)(=O)Nc2cc3c(nc2C)CCN(CC)CC3)cc1` [Example 137, 4-Ethoxy-N-(7-ethyl-2-methyl-6,7,8,9-tetrahydro-5H-pyrido[2,3-d]azepin-3-yl)benzenesulfonamide], for which the results for the Ki in assay [1] and in assay [2] were greater than 4.19 µM and 0.152 µM, respectively.

With `COc1nc2c(cc1NS(=O)(=O)c1ccc(C3CCOC(C)C3)cc1)CCN(C)CC2` (single isomer, unassigned) [Example 88], the Ki in assay [1] came to 0.651 µM; in assay [2], 0.00684 µM.

For `COc1nc2c(cc1NS(=O)(=O)c1ccc([C@]3(F)C[C@@H](C)C3)nc1)CCN(C)CC2` [Example 25, 6-(cis-1-fluoro-3-methylcyclobutyl)-N-(2-methoxy-7-methyl-6,7,8,9-tetrahydro-5H-pyrido[2,3-d]azepin-3-yl)pyridine-3-sulfonamide], the Ki worked out at 0.542 µM in assay [1] and 0.00507 µM in assay [2].

`CCN1CCc2cc(NS(=O)(=O)c3ccc([C@]4(O)C[C@@H](OC)C4)nc3)c(OC)nc2CC1` [Example 23, N-(7-ethyl-2-methoxy-6,7,8,9-tetrahydro-5H-pyrido[2,3-d]azepin-3-yl)-6-(cis-1-hydroxy-3-methoxycyclobutyl)pyridine-3-sulfonamide]: the Ki was greater than 4.6 µM in assay [1] and greater than 0.459 µM in assay [2].

With `COc1nc2c(cc1NS(=O)(=O)c1ccc(C(F)(F)C3CCCC3)nc1)CCN(C)CC2` [Example 47, 6-[cyclopentyl(difluoro)methyl]-N-(2-methoxy-7-methyl-6,7,8,9-tetrahydro-5H-pyrido[2,3-d]azepin-3-yl)pyridine-3-sulfonamide], the Ki came to 0.176 µM in assay [1] and 0.00233 µM in assay [2].

For the compound `COc1nc2c(cc1NS(=O)(=O)c1cnc(OC3CCCC3)c(C)c1)CCN(C)CC2` [Example 124, 6-(cyclopentyloxy)-N-(2-methoxy-7-methyl-6,7,8,9-tetrahydro-5H-pyrido[2,3-d]azepin-3-yl)-5-methylpyridine-3-sulfonamide], the Ki in assay [1] came to 0.00389 µM; in assay [2], 0.00079 µM.

Consider `CCN1CCc2cc(NS(=O)(=O)c3ccc(C4CCCCC4)nc3)c(OC)nc2CC1` [Example 114, 6-cyclohexyl-N-(7-ethyl-2-methoxy-6,7,8,9-tetrahydro-5H-pyrido[2,3-d]azepin-3-yl)pyridine-3-sulfonamide], for which the figures for the Ki in assay [1] and in assay [2] were 0.146 µM and 0.00315 µM, respectively.

`COc1nc2c(cc1NS(=O)(=O)c1ccc([C@@H](C)OC)cc1)CCN(C)CC2` [Example 90, 4-[(1R)-1-methoxyethyl]-N-(2-methoxy-7-methyl-6,7,8,9-tetrahydro-5H-pyrido[2,3-d]azepin-3-yl)benzenesulfonamide]: the Ki amounted to 0.207 µM in assay [1] and 0.00193 µM in assay [2].

In the case of `COc1nc2c(cc1NS(=O)(=O)c1ccc(C(C)C)cc1)CCN(CCCF)CC2` [Example 44, N-[7-(3-fluoropropyl)-2-methoxy-6,7,8,9-tetrahydro-5H-pyrido[2,3-d]azepin-3-yl]-4-(propan-2-yl)benzenesulfonamide], the Ki amounted to 0.162 µM in assay [1] and 0.00225 µM in assay [2].

Regarding `COc1nc2c(cc1NS(=O)(=O)c1cnc(OC(C)(C)C)nc1)CCN(C)CC2` [Example 117, 2-tert-butoxy-N-(2-methoxy-7-methyl-6,7,8,9-tetrahydro-5H-pyrido[2,3-d]azepin-3-yl)pyrimidine-5-sulfonamide], the Ki in assay [1] is 0.464 µM; in assay [2] it was 0.00993 µM.

Take `COc1nc2c(cc1NS(=O)(=O)c1ccc([C@@H]3CCCCO3)cc1)CCN(C)CC2` [Example 8, N-(2-Methoxy-7-methyl-6,7,8,9-tetrahydro-5H-pyrido[2,3-d]azepin-3-yl)-4-[(2S)-tetrahydro-2H-pyran-2-yl]benzenesulfonamide]: the Ki in assay [1] was found to be 0.18 µM; in assay [2] it was 0.00209 µM.

As for `COc1nc2c(cc1NS(=O)(=O)c1ccc(C3(F)CCCCC3)nc1)CCN(C)CC2` [Example 19, 6-(1-fluorocyclohexyl)-N-(2-methoxy-7-methyl-6,7,8,9-tetrahydro-5H-pyrido[2,3-d]azepin-3-yl)pyridine-3-sulfonamide], the Ki in assay [1] is 0.0912 µM; in assay [2], 0.00276 µM.

As for `CCO[C@H]1C[C@@H](c2ccc(S(=O)(=O)Nc3cc4c(nc3OC)CCN(CC)CC4)cc2)C1` [Example 120, 4-(cis-3-ethoxycyclobutyl)-N-(7-ethyl-2-methoxy-6,7,8,9-tetrahydro-5H-pyrido[2,3-d]azepin-3-yl)benzenesulfonamide], the Ki in assay [1] turned out to be 0.054 µM; in assay [2], 0.00128 µM.

As to `COc1nc2c(cc1NS(=O)(=O)c1ccc(C3(F)CCC(OC)CC3)cc1)CCN(C)CC2` (single isomer, unassigned) [Example 39, 4-(cis-1-fluoro-4-methoxycyclohexyl)-N-(2-methoxy-7-methyl-6,7,8,9-tetrahydro-5H-pyrido[2,3-d]azepin-3-yl)benzenesulfonamide], the Ki in assay [1] is 0.561 µM; in assay [2], 0.00195 µM.

Turning to `COc1nc2c(cc1NS(=O)(=O)c1ccc([C@H]3CCCCO3)nc1)CCN(C)CC2` [Example 129, N-(2-methoxy-7-methyl-6,7,8,9-tetrahydro-5H-pyrido[2,3-d]azepin-3-yl)-6-[(2R)-tetrahydro-2H-pyran-2-yl]pyridine-3-sulfonamide], the Ki was 0.786 µM in assay [1] and 0.0167 µM in assay [2].

As for `CCN1CCc2cc(NS(=O)(=O)c3ccc(C4(F)CCOCC4)cc3)c(OC)nc2CC1` [Example 75, N-(7-ethyl-2-methoxy-6,7,8,9-tetrahydro-5H-pyrido[2,3-d]azepin-3-yl)-4-(4-fluorotetrahydro-2H-pyran-4-yl)benzenesulfonamide], the Ki in assay [1] stood at 0.262 µM; in assay [2], 0.0032 µM.

Take `COc1nc2c(cc1NS(=O)(=O)c1ccc(C3(F)CCC(OC)CC3)cc1)CCN(C)CC2` (single isomer, unassigned) [Example 93, 4-(trans-1-fluoro-4-methoxycyclohexyl)-N-(2-methoxy-7-methyl-6,7,8,9-tetrahydro-5H-pyrido[2,3-d]azepin-3-yl)benzenesulfonamide]: the Ki in assay [1] is 0.366 µM; in assay [2], 0.00203 µM.

Take `COc1nc2c(cc1NS(=O)(=O)c1ccc(OC3CCC3)nc1)CCN(C)CC2` [Example 17, 6-(cyclobutyloxy)-N-(2-methoxy-7-methyl-6,7,8,9-tetrahydro-5H-pyrido[2,3-d]azepin-3-yl)pyridine-3-sulfonamide]: the Ki was 0.0902 µM in assay [1] and 0.00195 µM in assay [2].

Turning to `COc1nc2c(cc1NS(=O)(=O)c1cnc(C3CCCC3)nc1)CCN(C)CC2` [Example 123, 2-cyclopentyl-N-(2-methoxy-7-methyl-6,7,8,9-tetrahydro-5H-pyrido[2,3-d]azepin-3-yl)pyrimidine-5-sulfonamide], the Ki in assay [1] turned out to be 0.164 µM; in assay [2], 0.0129 µM.

On to `CCOc1ccc(S(=O)(=O)Nc2cc3c(nc2OC(C)C)CCN(CC)CC3)cc1` [Example 14, 4-Ethoxy-N-[7-ethyl-2-(propan-2-yloxy)-6,7,8,9-tetrahydro-5H-pyrido[2,3-d]azepin-3-yl]benzenesulfonamide], for which the figures for the Ki in assay [1] and in assay [2] were 0.0366 µM and 0.00381 µM, respectively.

In the case of `COc1nc2c(cc1NS(=O)(=O)c1ccc(C3COC3)cc1)CCN(C)CC2` [Example 33, N-(2-methoxy-7-methyl-6,7,8,9-tetrahydro-5H-pyrido[2,3-d]azepin-3-yl)-4-(oxetan-3-yl)benzenesulfonamide], the Ki in assay [2] is 0.00368 µM.
